Series [1] relates to Trichophyton mentagrophytes. Put plainly: Minimum fungicide concentration (MFC). In kind it is cell-based. The protocol: (§1) A qualitative analysis of the fungal viability was performed by transferring a portion of the wells to a plate with Sabouraud (Difco, BD Biosciences) medium and incubating it at 35°C for the time determined for each fungal agent. […] A visual reading was performed to confirm the death or growth inhibition provided by fluconazole and the sixteen semisynthetic substances derived from protocatechuic acid.

Series [2] relates to Trichophyton rubrum. The series can be described thus: Minimum fungicide concentration (MFC). The class given is cell-based. How it is done:
as §1

The subject of series [3] is Trichophyton mentagrophytes. Put plainly: Checkerboard synergism assay with fluconazole. The class given is cell-based. To be noted: for MIC, substances alone: checkerboard, 168 hours. The protocol:
(§2) The drug activity was assessed using a checkerboard method derived from a standardised procedure established by the National Committee for Clinical Laboratory Standards ([…]-A2). Briefly, the test was performed on the same medium used for susceptibility testing. Volumes of 50 μL of each drug in a concentration four times the final concentration were dispensed in 96-well plates ([…], Switzerland). To each well, 100 μL of the fungal suspension was added to produce a final concentration of 5.0 × 10^3 CFU/mL. As a negative control, we used 200 μL of RPMI, while as a positive control, we used 100 μL of RPMI medium with 100 μL of inoculum. The plates were incubated at 35°C, and the reading was completed after 168 hours. We conducted visual and spectrophotometric readings at 490 nm. To determine the effect of combinatorial fractions, we calculated the fractional inhibitory concentration (FIC). The FIC was calculated by taking the MIC of the substance in combination/MIC of the substance alone. The sum of the fractional inhibitory concentration (FIC) of each substance consists of the fractional inhibitory concentration index: (the MIC of drug A in combination/the MIC of drug A alone) + (the MIC of drug B in combination/the MIC of drug B alone).

Series [4] deals with Trichophyton rubrum. The series can be described thus: Checkerboard synergism assay with fluconazole. The class given is cell-based. How it is done: as §2
Series [5] has as its system Trichophyton mentagrophytes. The series can be described thus: Broth microdilution MIC (CLSI M38-A2, modified). In kind it is cell-based. The conditions noted are these: 35°C, 7 days. The protocol:
(§3) To evaluate its antifungal activity, […] of dermatophytes were tested: two clinical strains of Trichophyton rubrum (Tr1 and Tr2), Trichophyton rubrum ATCC MYA 3108, two clinical strains of Trichophyton mentagrophytes (Tm1 and Tm2), and Trichophyton mentagrophytes ATCC 40131 (Tm3). The microorganisms were obtained from the collection of the Clinical Mycology Laboratory of the Department of Clinical Analyses at the School of Pharmaceutical Sciences of Universidade Estadual Paulista (UNESP). The strains were cultivated on Sabouraud dextrose agar (Difco, BD Biosciences) and incubated at 28°C for 7-15 days. For all experiments, the strains were cultivated on Potato Dextrose Agar (Difco, BD Biosciences) and incubated at 28°C as described above or until sporulation. The dilution of the synthetic compounds was performed with DMSO (Synth, Diadema, Sao Paulo, Brazil) as described by Scorzoni et al.. […] The antifungal drugs were diluted according to the CLSI […]-A2 document. Stock solutions of Fluconazole (Sigma-Aldrich, St. Louis, MO, USA) were prepared, considering its power. Serial twofold dilutions were prepared according to the recommendations of Zhang and collaborators, with some modifications. The antifungal activity tests were performed using the broth microdilution method as described in […]-A2, a document produced by the Clinical and Laboratory Standards Institute (CLSI, 2008), with modifications. The medium used was RPMI 1640 with L-glutamine (Sigma-Aldrich, St. Louis, MO, USA) buffered to pH 7.0 with 0.165 M morpholinepropanesulfonic acid (MOPS) (Sigma-Aldrich, St. Louis, MO, USA), supplemented with 2% glucose. […] The suspension of conidia was then transferred to small sterile test tubes where they remained for 40 minutes to separate the microconidia, which were lighter and therefore present in the supernatant. […] These suspensions were diluted in RPMI 1640 (Sigma-Aldrich, St. […] Positive (100 μL of RPMI medium with 100 μL of inoculum) and negative (200 μL of RPMI) controls were included in all experiments. The plates were incubated with agitation at 35°C for 7 days. The MIC reading was performed by spectrophotometry at 490 nm.
In general terms: Broth dilution looks for growth in wells or tubes with falling amounts of substance.

Series [6] has as its system Trichophyton rubrum. The series can be described thus: Broth microdilution MIC (CLSI M38-A2, modified). The class given is cell-based. To be noted: 35°C, 7 days. How it is done: as §3
The subject of the next series is Saccharomyces cerevisiae. Set-up: method as in PMID 14592492. The conditions noted are these: cited from earlier work.
Series [7] concerns NOK (oral human keratinocyte) cell lines. Put plainly: Sulphorhodamine B cytotoxicity assay. The class given is cell-based. The conditions noted are these: NOK cells, 24 hours. The protocol: The cytotoxicity of sixteen semisynthetic compounds derived from protocatechuic acid was assessed using a sulphorhodamine B assay in NOK (oral human keratinocyte) cell lines obtained from the American Type Culture Collection (Manassas, VA, USA). The strains were maintained in bottles appropriate for cell culture with keratinocyte serum free medium (Gibco, Life Technologies) and incubated in standard conditions of 37°C and 5% CO2. Cell concentrations ranging from 2.5 to 5.0 × 10^4 cells/mL were used for the formation of cell monolayers. The concentrations of pure substances were kept in contact with the cells for 24 hours. After the incubation period, the cells were treated with the sulphorhodamine B reagent (Sigma-Aldrich, St. Louis, MO, USA) as previously described by Skehan et al., with some modifications.
In general terms: The SRB assay estimates cell density from bound dye.

Setting [8] is: Tm3, T. mentagrophytes ATCC 40131.
[9] abbreviates: Tr1, T. rubrum clinical isolate.
[10] abbreviates: Tr2, T. rubrum clinical isolate.

Converted amounts (≈) assume the structure as drawn.

Broadly, the MFC is the lowest tested concentration that kills the fungus rather than only halting it. A higher MFC goes with weaker fungicidal potency. What is called MIC is the least concentration at which growth counts as inhibited. Read a low MIC as greater potency.

For the molecule `CCCCCCCCOC(=O)c1ccc(O)c(O)c1` [Protocatechuate octyl, octyl protocatechuate], the MFC in series [1] (Tm1, clinical isolate) came out at 3.90 mg/L (≈ 14.6 µM); in series [1] (Tm2, clinical isolate) it was 1.95 mg/L (≈ 7.32 µM); in series [1] (setting [8]), 3.9 mg/L (≈ 14.6 µM); against Trichophyton rubrum [2] (setting [9]), 1.95 mg/L (≈ 7.32 µM); against Trichophyton rubrum [2] (setting [10]), 7.8 mg/L (≈ 29.3 µM); against Trichophyton rubrum [2] (Tr3, T. rubrum ATCC MYA 3108), 1.95 mg/L (≈ 7.32 µM). Besides, the figures for the FIC index (in series [3]; in the series with Trichophyton rubrum [4]) were 0.72 and 1.0, respectively. For the same molecule, the figures for the “MIC of the protocatechuate, substances combined” value (in series [3]; in the series with Trichophyton rubrum [4]) were 0.03 mg/L and 0.06 mg/L, respectively. The “association type (in words)” value (in series [3]; with Trichophyton rubrum [4]) was “additive” each time. Further, the “MIC, substances alone” value in series [3] (Tm1) came to 1.9 mg/L; in series [3] (Tm3 (ATCC 40131)), 3.9 mg/L; in the series on Trichophyton rubrum [4] (Tr1, checkerboard, 168 hours) it was 1.9 mg/L. The “reduction in the MIC of the protocatechuate” value in the series on Trichophyton rubrum [4] is listed as 31.66 times. The MIC in series [5] (Tm1, clinical isolate) came to 1.95 mg/L (≈ 7.32 µM); in series [5] (Tm2, clinical isolate) it was 1.95 mg/L (≈ 7.32 µM); in series [5] (setting [8]), 3.9 mg/L (≈ 14.6 µM); in the series with Trichophyton rubrum [6] (setting [9]), 1.95 mg/L (≈ 7.32 µM); in the series with Trichophyton rubrum [6] (setting [10]) it was 7.8 mg/L (≈ 29.3 µM); against Trichophyton rubrum [6] (Tr3, T. rubrum ATCC MYA 3108) it was 0.97 mg/L (≈ 3.64 µM). Also, the fungicidal activity entry in the series on Saccharomyces cerevisiae was “fungicidal activity”. Besides, the “Cytotoxicity IC50” value in series [7] is on record as 54.0 mg/L.

Values taken from publication PMC4086519, “Anti-Trichophyton Activity of Protocatechuates and Their Synergism with Fluconazole” (Evidence-based Complementary and Alternative Medicine : eCAM, 2014).
